Test results taken from ChEMBL document CHEMBL1201862, “PubChem BioAssay data set” (2004).
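48-hour exposure; five concentrations; linearly interpolated endpoints. GI50 = concentration required for 50% inhibition of growth.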 Active and inactive are the calls of the source. Rule as the data show it: active = GI50 up to about 1.1 µM and inactive = higher.

Columns and labels:
Assay in all cases: DTP human tumour cell line panel, 48 h
Hs-578T = tested on: Hs-578T
NCI/ADR-RES = tested on: NCI/ADR-RES
SK-OV-3 = tested on: SK-OV-3
MCF7 = tested on: MCF7
COLO 205 = tested on: COLO 205
SK-MEL-5 = tested on: SK-MEL-5
UACC-257 = tested on: UACC-257
RXF 393 = tested on: RXF 393
NCI-H23 = tested on: NCI-H23
UACC-62 = tested on: UACC-62
TK-10 = tested on: TK-10
786-0 = tested on: 786-0
HCT-116 = tested on: HCT-116
SNB-75 = tested on: SNB-75
DU-145 = tested on: DU-145
SW-620 = tested on: SW-620
NCI-H460 = tested on: NCI-H460
SNB-19 = tested on: SNB-19
SR = tested on: SR
LOX IMVI = tested on: LOX IMVI

Compound | GI50 (Hs-578T) | GI50 (NCI/ADR-RES) | GI50 (SK-OV-3) | GI50 (MCF7) | GI50 (COLO 205) | GI50 (SK-MEL-5) | GI50 (UACC-257) | GI50 (RXF 393) | GI50 (NCI-H23) | GI50 (UACC-62) | GI50 (TK-10) | GI50 (786-0) | GI50 (HCT-116) | GI50 (SNB-75) | GI50 (DU-145) | GI50 (SW-620) | GI50 (NCI-H460) | GI50 (SNB-19) | GI50 (SR) | GI50 (LOX IMVI)
Cc1n[nH]c(=O)n1N1C(=O)CCCC1=O | > 100 µM (inactive) | > 100 µM (inactive) | > 100 µM (inactive) | > 100 µM (inactive) | > 100 µM (inactive) | > 100 µM (inactive) | > 100 µM (inactive) | > 100 µM (inactive) | > 100 µM (inactive) | > 100 µM (inactive) | > 100 µM (inactive) | > 100 µM (inactive) | > 100 µM (inactive) | > 100 µM (inactive) | > 100 µM (inactive) | – | – | – | – | –
COc1ccc2c(c1)C(=O)C1CCC(=O)N1C2c1ccc2c(c1)OCO2 (centres undefined) | 27.2 µM (inactive) | 22.7 µM (inactive) | 26.3 µM (inactive) | 4.83 µM (inactive) | 8.65 µM (inactive) | 11.4 µM (inactive) | 16.9 µM (inactive) | – | 15.1 µM (inactive) | 13.6 µM (inactive) | 30.8 µM (inactive) | 24.8 µM (inactive) | 3.67 µM (inactive) | 14.9 µM (inactive) | 18.2 µM (inactive) | 5.36 µM (inactive) | 23.9 µM (inactive) | 13.8 µM (inactive) | 4.56 µM (inactive) | 9.59 µM (inactive)
CC1(C)S[C@@H]2[C@H](NC(=O)[C@H](N)c3ccccc3)C(=O)N2[C@H]1C(=O)O [AMPICILLIN] | 63.8 µM (inactive) | > 100 µM (inactive) | – | > 100 µM (inactive) | > 100 µM (inactive) | > 100 µM (inactive) | > 100 µM (inactive) | – | > 100 µM (inactive) | > 100 µM (inactive) | > 100 µM (inactive) | > 100 µM (inactive) | > 100 µM (inactive) | > 100 µM (inactive) | > 100 µM (inactive) | > 100 µM (inactive) | > 100 µM (inactive) | > 100 µM (inactive) | > 100 µM (inactive) | > 100 µM (inactive)
CN(C(=O)Cc1ccccc1)n1cnn(CC(=O)OC(C)(C)C)c1=S | > 10 µM (inactive) | > 10 µM (inactive) | > 10 µM (inactive) | > 10 µM (inactive) | > 10 µM (inactive) | > 10 µM (inactive) | > 10 µM (inactive) | – | > 10 µM (inactive) | > 10 µM (inactive) | > 10 µM (inactive) | > 10 µM (inactive) | > 10 µM (inactive) | > 10 µM (inactive) | > 10 µM (inactive) | > 10 µM (inactive) | > 10 µM (inactive) | > 10 µM (inactive) | > 10 µM (inactive) | > 10 µM (inactive)
CC1CN=C(N(C(=O)Nc2ccccc2)c2ccc(Cl)c(Cl)c2)S1 (centres undefined) | 65 µM (inactive) | 20.7 µM (inactive) | 52.7 µM (inactive) | 19.8 µM (inactive) | > 10 µM (inactive) | 18.5 µM (inactive) | 32.2 µM (inactive) | – | 32.8 µM (inactive) | – | 28.2 µM (inactive) | 31.1 µM (inactive) | 23.1 µM (inactive) | > 100 µM (inactive) | 45.8 µM (inactive) | 30.5 µM (inactive) | 19.3 µM (inactive) | 70.6 µM (inactive) | 24.4 µM (inactive) | 25.9 µM (inactive)
COc1cc(OCCN(C)C)c2[nH]c(C(=O)N3CC(CCl)c4c3cc(N)c3ccccc43)cc2c1 (centres undefined) | < 0.01 µM (active) | < 0.01 µM (active) | 0.0148 µM (active) | < 0.01 µM (active) | < 0.01 µM (active) | < 0.01 µM (active) | < 0.01 µM (active) | < 0.01 µM (active) | < 0.01 µM (active) | < 0.01 µM (active) | < 0.01 µM (active) | < 0.01 µM (active) | < 0.01 µM (active) | < 0.01 µM (active) | < 0.01 µM (active) | < 0.01 µM (active) | < 0.01 µM (active) | < 0.01 µM (active) | – | < 0.01 µM (active)
O=c1n(/N=C/c2ccccc2)c(=O)n2n1C1C=CC2CC1 | > 100 µM (inactive) | > 100 µM (inactive) | > 100 µM (inactive) | > 100 µM (inactive) | > 100 µM (inactive) | > 100 µM (inactive) | > 100 µM (inactive) | – | > 100 µM (inactive) | > 100 µM (inactive) | > 100 µM (inactive) | > 100 µM (inactive) | > 100 µM (inactive) | > 100 µM (inactive) | > 100 µM (inactive) | > 100 µM (inactive) | > 100 µM (inactive) | > 100 µM (inactive) | > 100 µM (inactive) | > 100 µM (inactive)
CC[S+]([O-])C(=O)N(O)c1ccc(Cl)cc1 (centres undefined) | 41.2 µM (inactive) | 24.9 µM (inactive) | > 100 µM (inactive) | 20.4 µM (inactive) | 36 µM (inactive) | 26.4 µM (inactive) | 23.2 µM (inactive) | 19.7 µM (inactive) | – | 8.55 µM (inactive) | 35.8 µM (inactive) | 21.7 µM (inactive) | 24.4 µM (inactive) | 32.1 µM (inactive) | > 100 µM (inactive) | 18 µM (inactive) | – | 60.7 µM (inactive) | – | 11.7 µM (inactive)
O=[N+]([O-])c1ccc(N/N=C2\C=CCCC2)c([N+](=O)[O-])c1 | 27.3 µM (inactive) | > 100 µM (inactive) | > 100 µM (inactive) | > 100 µM (inactive) | > 100 µM (inactive) | > 100 µM (inactive) | > 100 µM (inactive) | – | > 100 µM (inactive) | > 100 µM (inactive) | > 100 µM (inactive) | > 100 µM (inactive) | > 100 µM (inactive) | 27.2 µM (inactive) | > 100 µM (inactive) | > 100 µM (inactive) | > 100 µM (inactive) | > 100 µM (inactive) | > 100 µM (inactive) | > 100 µM (inactive)
CNC1C(O)C(OC2C(N)CC(N)C(OC3OC(CN)=CCC3N)C2O)OCC1(C)O (centres undefined) | > 100 µM (inactive) | > 100 µM (inactive) | > 100 µM (inactive) | > 100 µM (inactive) | > 100 µM (inactive) | > 100 µM (inactive) | > 100 µM (inactive) | – | > 100 µM (inactive) | > 100 µM (inactive) | – | > 100 µM (inactive) | > 100 µM (inactive) | > 100 µM (inactive) | > 100 µM (inactive) | > 100 µM (inactive) | > 100 µM (inactive) | > 100 µM (inactive) | > 100 µM (inactive) | > 100 µM (inactive)
O=C(O)C1CCCCC1c1c2ccc(=O)cc-2oc2cc(O)ccc12 (centres undefined) | 34.8 µM (inactive) | 43.9 µM (inactive) | 32.1 µM (inactive) | 27.6 µM (inactive) | 34.1 µM (inactive) | 36.2 µM (inactive) | 65.3 µM (inactive) | 18.7 µM (inactive) | 29.8 µM (inactive) | 25.9 µM (inactive) | 52.1 µM (inactive) | 32.1 µM (inactive) | 31 µM (inactive) | 25.1 µM (inactive) | 26.5 µM (inactive) | 44.9 µM (inactive) | 32.4 µM (inactive) | 48.6 µM (inactive) | – | 28.1 µM (inactive)
CSc1nc(O)c(C#N)c(-c2ccccc2)n1 | > 100 µM (inactive) | > 100 µM (inactive) | > 100 µM (inactive) | > 100 µM (inactive) | > 100 µM (inactive) | > 100 µM (inactive) | > 100 µM (inactive) | > 100 µM (inactive) | > 100 µM (inactive) | > 100 µM (inactive) | > 100 µM (inactive) | > 100 µM (inactive) | > 100 µM (inactive) | > 100 µM (inactive) | > 100 µM (inactive) | > 100 µM (inactive) | > 100 µM (inactive) | > 100 µM (inactive) | – | –
N=C(Cc1ccccc1)NCC(=O)O | > 100 µM (inactive) | > 100 µM (inactive) | > 100 µM (inactive) | > 100 µM (inactive) | > 100 µM (inactive) | > 100 µM (inactive) | > 100 µM (inactive) | > 100 µM (inactive) | > 100 µM (inactive) | > 100 µM (inactive) | > 100 µM (inactive) | > 100 µM (inactive) | > 100 µM (inactive) | > 100 µM (inactive) | > 100 µM (inactive) | > 100 µM (inactive) | > 100 µM (inactive) | > 100 µM (inactive) | – | > 100 µM (inactive)
Cn1cco/c1=N/c1ccc(Cl)c(Cl)c1 | > 10 µM (inactive) | > 10 µM (inactive) | > 10 µM (inactive) | > 10 µM (inactive) | > 10 µM (inactive) | > 10 µM (inactive) | > 10 µM (inactive) | – | > 10 µM (inactive) | > 10 µM (inactive) | > 10 µM (inactive) | > 10 µM (inactive) | > 10 µM (inactive) | > 10 µM (inactive) | > 10 µM (inactive) | > 10 µM (inactive) | > 10 µM (inactive) | > 10 µM (inactive) | > 10 µM (inactive) | > 10 µM (inactive)
COc1ccc(C2CC(c3c(O)ccc4ccccc34)=NN2C(C)=O)cc1OC (centres undefined) | 36.9 µM (inactive) | 26.5 µM (inactive) | 57.8 µM (inactive) | 23.7 µM (inactive) | 17 µM (inactive) | 21.9 µM (inactive) | 34.8 µM (inactive) | 24.1 µM (inactive) | 23.4 µM (inactive) | 15.1 µM (inactive) | 53.3 µM (inactive) | 33.3 µM (inactive) | 15.3 µM (inactive) | 19.8 µM (inactive) | 36.2 µM (inactive) | 32.9 µM (inactive) | 28.1 µM (inactive) | – | 14.2 µM (inactive) | –
